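1) Cells in 96-well plates. 2) Compound, 48 h, 5 concentrations. 3) Linear interpolation between surrounding doses. 4) Unreached endpoint = highest concentration. GI50 marks 50% less growth.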 Calls of active or inactive are those of the source. No stated cut-off is given here; in the data, active = GI50 up to about 1.1 µM and inactive = higher.
Tests used:
Assay in all cases: NCI anticancer screen, dose series, 48 h
CCRF-CEM = tested on: CCRF-CEM
OVCAR-8 = tested on: OVCAR-8
NCI-H522 = tested on: NCI-H522
HCC 2998 = tested on: HCC 2998
NCI-H460 = tested on: NCI-H460
Malme-3M = tested on: Malme-3M
LOX IMVI = tested on: LOX IMVI
SF-295 = tested on: SF-295
UACC-62 = tested on: UACC-62
UACC-257 = tested on: UACC-257
SK-MEL-5 = tested on: SK-MEL-5
OVCAR-3 = tested on: OVCAR-3
U-251 = tested on: U-251
EKVX = tested on: EKVX
HCT-116 = tested on: HCT-116
UO-31 = tested on: UO-31
RPMI-8226 = tested on: RPMI-8226
SF-268 = tested on: SF-268
HCT-15 = tested on: HCT-15
M14 = tested on: M14

SMILES	GI50 (CCRF-CEM)	GI50 (OVCAR-8)	GI50 (NCI-H522)	GI50 (HCC 2998)	GI50 (NCI-H460)	GI50 (Malme-3M)	GI50 (LOX IMVI)	GI50 (SF-295)	GI50 (UACC-62)	GI50 (UACC-257)	GI50 (SK-MEL-5)	GI50 (OVCAR-3)	GI50 (U-251)	GI50 (EKVX)	GI50 (HCT-116)	GI50 (UO-31)	GI50 (RPMI-8226)	GI50 (SF-268)	GI50 (HCT-15)	GI50 (M14)
C(=C/c1nc2ccccc2o1)/c1ccc2c(c1)OCO2	> 67.9 µM (inactive)	29.7 µM (inactive)	7.74 µM (inactive)	6.32 µM (inactive)	21.2 µM (inactive)	27.3 µM (inactive)	6.59 µM (inactive)	8.04 µM (inactive)	2.62 µM (inactive)	12.7 µM (inactive)	8.41 µM (inactive)	12.1 µM (inactive)	17.5 µM (inactive)	55.5 µM (inactive)	12.3 µM (inactive)	17 µM (inactive)	26.4 µM (inactive)	19.8 µM (inactive)	8.18 µM	–
CCN(CCO)C(=O)C1(c2ccccc2)CCCCC1	> 10 µM (inactive)	> 10 µM (inactive)	> 10 µM (inactive)	> 10 µM (inactive)	> 10 µM (inactive)	> 10 µM (inactive)	> 10 µM (inactive)	> 10 µM (inactive)	> 10 µM (inactive)	–	> 10 µM (inactive)	> 10 µM (inactive)	> 10 µM (inactive)	> 10 µM (inactive)	> 10 µM (inactive)	> 10 µM (inactive)	> 10 µM (inactive)	> 10 µM (inactive)	> 10 µM	> 10 µM (inactive)
C=C1C(=O)O[C@@H]2C[C@@]3(C)[C@H](O)CCC(=C)[C@@H]3C[C@H]12 [ASPERILIN]	3.01 µM (inactive)	7.24 µM (inactive)	4.16 µM (inactive)	7.05 µM (inactive)	6.14 µM (inactive)	3.11 µM (inactive)	5.27 µM (inactive)	14.1 µM (inactive)	5.96 µM (inactive)	–	4.26 µM (inactive)	8.15 µM (inactive)	13.4 µM (inactive)	16.1 µM (inactive)	4.86 µM (inactive)	10.8 µM (inactive)	3.46 µM (inactive)	15.6 µM (inactive)	11.3 µM	3.31 µM (inactive)
COC(=O)Cc1c([C@H]2[C@H](CC(=O)OC)c3ccccc3N2C(=O)C(F)(F)F)[nH]c2ccccc12	14.6 µM (inactive)	32.5 µM (inactive)	12 µM (inactive)	32.1 µM (inactive)	22.4 µM (inactive)	29.9 µM (inactive)	26.4 µM (inactive)	18.1 µM (inactive)	13.6 µM (inactive)	29.1 µM (inactive)	11.6 µM (inactive)	15.9 µM (inactive)	13.6 µM (inactive)	26.8 µM (inactive)	15.5 µM (inactive)	33.6 µM (inactive)	17.7 µM (inactive)	27.4 µM (inactive)	8.18 µM	–
CC1(c2nc3ccccc3[nH]2)CCC(C#N)C(C)(C)O1 (stereo not given)	> 100 µM (inactive)	> 100 µM (inactive)	> 100 µM (inactive)	> 100 µM (inactive)	–	> 100 µM (inactive)	> 100 µM (inactive)	> 100 µM (inactive)	> 100 µM (inactive)	> 100 µM (inactive)	> 100 µM (inactive)	> 100 µM (inactive)	> 100 µM (inactive)	> 100 µM (inactive)	> 100 µM (inactive)	36 µM (inactive)	> 100 µM (inactive)	> 100 µM (inactive)	> 100 µM	> 100 µM (inactive)

Source: ChEMBL document CHEMBL1201862, “PubChem BioAssay data set” (2004)
